How the values were obtained:
wheat [1] = assay: Soil treatment test for upland field; assay type: in vivo; parameters: key: 0 = normal development, 5 = all killed; details: 500 g/ha, 3 weeks, glass house 25° C.
Procedure: (§1) The herbicidal effects are evaluated according to the following 6 ranks as compared with non-treated district. (0: normal development, 1: Less damaged, 2: Slightly damaged, 3: Moderately damaged, 4: Severely damaged, 5: All killed). Incidentally, “-” in the column means not investigated.
(§2) Wagner pots, each having an area of 1/5000 are, were packed with Ube soil (alluvial soil), and then each seed of corn, soybean, cotton, wheat, solgum, sugar beat, Large crabgrass, barnyard grass, green foxtail, blackgrass, annual bluegrass, common lambsquarters, livid amaranth, velvetleaf, morning glory, common Cocklebur (Xanthium strumarium) and sicklepod (Cassia obtusifolia) were planted and covered with soil.
(§3) Each wettable powder of the desired compounds (I) shown in Tables 1 to 21, 24, 25, 28 and 29 prepared in accordance with Example 2 was diluted with water containing a surfactant (0.05%) and uniformly sprayed on the surface of each soil so that an effective concentration of the compound (I) in each herbicide became 500 g/ha.
(§4) These plants were controlled in a glass house at an average temperature of 25° C. for 3 weeks, and then herbicidal effects thereof were investigated.
(§5) The herbicidal effects were evaluated according to the evaluation method described in the above (1).

soybean [2] = assay: Soil treatment test for upland field; assay type: in vivo; parameters: key: 0 = normal development, 5 = all killed; details: 500 g/ha, 3 weeks, glass house 25° C.
Procedure: as §1, §2, §3, §4, §5

corn [3] = assay: Soil treatment test for upland field; assay type: in vivo; parameters: key: 0 = normal development, 5 = all killed; details: 500 g/ha, 3 weeks, glass house 25° C.
Procedure: as §1, §2, §3, §4, §5

common lambsquarters [4] = assay: Soil treatment test for upland field; assay type: in vivo, Chenopodium album; parameters: key: 0 = normal development, 5 = all killed; details: 500 g/ha, 3 weeks, glass house 25° C.
Procedure: as §1, §2, §3, §4, §5

green foxtail [5] = assay: Soil treatment test for upland field; assay type: in vivo, Setaria viridis; parameters: key: 0 = normal development, 5 = all killed; details: 500 g/ha, 3 weeks, glass house 25° C.
Procedure: as §1, §2, §3, §4, §5

Large crabgrass [6] = assay: Soil treatment test for upland field; assay type: in vivo, Digitaria adscendens; parameters: key: 0 = normal development, 5 = all killed; details: 500 g/ha, 3 weeks, glass house 25° C.
Procedure: as §1, §2, §3, §4, §5

livid amaranth [7] = assay: Soil treatment test for upland field; assay type: in vivo, Amaranthus lividus; parameters: key: 0 = normal development, 5 = all killed; details: 500 g/ha, 3 weeks, glass house 25° C.
Procedure: as §1, §2, §3, §4, §5

barnyard grass = assay: Soil treatment test for upland field; assay type: in vivo, Eschinochloa crusgalli; parameters: key: 0 = normal development, 5 = all killed; details: 500 g/ha, 3 weeks, glass house 25° C.
Procedure: as §1, §2, §3, §4, §5

annual bluegrass [8] = assay: Soil treatment test for upland field; assay type: in vivo, Poa annua; parameters: key: 0 = normal development, 5 = all killed; details: 500 g/ha, 3 weeks, glass house 25° C.
Procedure: as §1, §2, §3, §4, §5

green foxtail [9] = assay: Foliar spread test for upland field; assay type: in vivo, Setaria viridis; parameters: key: 0 = normal development, 5 = all killed (6 ranks vs. untreated); details: foliar spray, 500 ppm, 3 weeks, glass house 25° C.
Procedure: as §1
(§6) Wagner pots, each having an area of 1/5000 are, were packed with volcanic ash soil and then each seed of corn, soybean, cotton, wheat, solgum, sugar beat, Large crabgrass, barnyardgrjass, green foxtail, blackgrass, annual bluegrass, common lambsquarters, livid amaranth, velvetleaf, morning glory, Xanthium pensylvanicum and Cassia obtusifolia was planted, covered with soil and grown in a glass house at an average temperature of 25° C. for about 2 weeks.
(§7) Each wettable powder of the desired compounds (I) shown in Tables 1 to 21, 24, 25, 28 and 29 prepared in accordance with Example 2 was diluted to 500 ppm with water containing a surfactant (0.5%) and then uniformly sprayed on the above respective plants.
(§8) After these plants were controlled in a glass house at an average temperature of 25° C. for 3 weeks, the herbicidal effects thereof were investigated.
as §5

common lambsquarters [10] = assay: Foliar spread test for upland field; assay type: in vivo, Chenopodium album; parameters: key: 0 = normal development, 5 = all killed (6 ranks vs. untreated); details: foliar spray, 500 ppm, 3 weeks, glass house 25° C.
Procedure: as §1, §6, §7, §8, §5

livid amaranth [11] = assay: Foliar spread test for upland field; assay type: in vivo, Amaranthus lividus; parameters: key: 0 = normal development, 5 = all killed (6 ranks vs. untreated); details: foliar spray, 500 ppm, 3 weeks, glass house 25° C.
Procedure: as §1, §6, §7, §8, §5

wheat [12] = assay: Foliar spread test for upland field; assay type: in vivo; parameters: key: 0 = normal development, 5 = all killed (6 ranks vs. untreated); details: foliar spray, 500 ppm, 3 weeks, glass house 25° C.
Procedure: as §1, §6, §7, §8, §5

Large crabgrass [13] = assay: Foliar spread test for upland field; assay type: in vivo, Digitaria adscendens; parameters: key: 0 = normal development, 5 = all killed (6 ranks vs. untreated); details: foliar spray, 500 ppm, 3 weeks, glass house 25° C.
Procedure: as §1, §6, §7, §8, §5

corn [14] = assay: Foliar spread test for upland field; assay type: in vivo; parameters: key: 0 = normal development, 5 = all killed (6 ranks vs. untreated); details: foliar spray, 500 ppm, 3 weeks, glass house 25° C.
Procedure: as §1, §6, §7, §8, §5

morning glory [15] = assay: Foliar spread test for upland field; assay type: in vivo, Ipomoea spps.; parameters: key: 0 = normal development, 5 = all killed (6 ranks vs. untreated); details: foliar spray, 500 ppm, 3 weeks, glass house 25° C.
Procedure: as §1, §6, §7, §8, §5

annual bluegrass [16] = assay: Foliar spread test for upland field; assay type: in vivo, Poa annua; parameters: key: 0 = normal development, 5 = all killed (6 ranks vs. untreated); details: foliar spray, 500 ppm, 3 weeks, glass house 25° C.
Procedure: as §1, §6, §7, §8, §5

barnyardgrjass = assay: Foliar spread test for upland field; assay type: in vivo, Eschinochloa crusgalli; parameters: key: 0 = normal development, 5 = all killed (6 ranks vs. untreated); details: foliar spray, 500 ppm, 3 weeks, glass house 25° C.
Procedure: as §1, §6, §7, §8, §5

sugar beat [17] = assay: Soil treatment test for upland field; assay type: in vivo; parameters: key: 0 = normal development, 5 = all killed; details: 500 g/ha, 3 weeks, glass house 25° C.
Procedure: as §1, §2, §3, §4, §5

solgum [18] = assay: Soil treatment test for upland field; assay type: in vivo; parameters: key: 0 = normal development, 5 = all killed; details: 500 g/ha, 3 weeks, glass house 25° C.
Procedure: as §1, §2, §3, §4, §5

velvetleaf [19] = assay: Soil treatment test for upland field; assay type: in vivo, Abutilon theophrasti; parameters: key: 0 = normal development, 5 = all killed; details: 500 g/ha, 3 weeks, glass house 25° C.
Procedure: as §1, §2, §3, §4, §5

velvetleaf [20] = assay: Foliar spread test for upland field; assay type: in vivo, Abutilon theophrasti; parameters: key: 0 = normal development, 5 = all killed (6 ranks vs. untreated); details: foliar spray, 500 ppm, 3 weeks, glass house 25° C.
Procedure: as §1, §6, §7, §8, §5

blackgrass [21] = assay: Foliar spread test for upland field; assay type: in vivo, Alopecurus aegualis; parameters: key: 0 = normal development, 5 = all killed (6 ranks vs. untreated); details: foliar spray, 500 ppm, 3 weeks, glass house 25° C.
Procedure: as §1, §6, §7, §8, §5

blackgrass [22] = assay: Soil treatment test for upland field; assay type: in vivo, Alopecurus aegualis; parameters: key: 0 = normal development, 5 = all killed; details: 500 g/ha, 3 weeks, glass house 25° C.
Procedure: as §1, §2, §3, §4, §5

sugar beat [23] = assay: Foliar spread test for upland field; assay type: in vivo; parameters: key: 0 = normal development, 5 = all killed (6 ranks vs. untreated); details: foliar spray, 500 ppm, 3 weeks, glass house 25° C.
Procedure: as §1, §6, §7, §8, §5

solgum [24] = assay: Foliar spread test for upland field; assay type: in vivo; parameters: key: 0 = normal development, 5 = all killed (6 ranks vs. untreated); details: foliar spray, 500 ppm, 3 weeks, glass house 25° C.
Procedure: as §1, §6, §7, §8, §5

cotton = assay: Foliar spread test for upland field; assay type: in vivo; parameters: key: 0 = normal development, 5 = all killed (6 ranks vs. untreated); details: foliar spray, 500 ppm, 3 weeks, glass house 25° C.
Procedure: as §1, §6, §7, §8, §5

soybean [25] = assay: Foliar spread test for upland field; assay type: in vivo; parameters: key: 0 = normal development, 5 = all killed (6 ranks vs. untreated); details: foliar spray, 500 ppm, 3 weeks, glass house 25° C.
Procedure: as §1, §6, §7, §8, §5

morning glory [26] = assay: Soil treatment test for upland field; assay type: in vivo, Ipomoea spps.; parameters: key: 0 = normal development, 5 = all killed; details: 500 g/ha, 3 weeks, glass house 25° C.
Procedure: as §1, §2, §3, §4, §5

| Structure (SMILES) | Effects Wheat (wheat [1]) | Effects Corn (corn [3]) | Effects Common lambsquarters (common lambsquarters [4]) | Effects Green foxtail (green foxtail [5]) | Effects Large crabgrass (Large crabgrass [6]) | Effects Livid amaranth (livid amaranth [7]) | Effects Barnyardgrass (barnyard grass) | Effects Annual bluegrass (annual bluegrass [8]) | Effects Green foxtail (green foxtail [9]) | Effects Common lambsquarters (common lambsquarters [10]) | Effects Livid amaranth (livid amaranth [11]) | Effects Wheat (wheat [12]) | Effects Large crabgrass (Large crabgrass [13]) | Effects Corn (corn [14]) | Effects Morning glory (morning glory [15]) | Effects Annual bluegrass (annual bluegrass [16]) | Effects Barnyardgrass (barnyardgrjass) | Effects Sugar beat (sugar beat [17]) | Effects Solgum (solgum [18]) | Effects Velvetleaf (velvetleaf [19]) | further results |
| --- | --- | --- | --- | --- | --- | --- | --- | --- | --- | --- | --- | --- | --- | --- | --- | --- | --- | --- | --- | --- | --- |
| CCCC(Oc1cc(C)nc(SC)n1)c1nc2cc(C#N)c(F)cc2o1 (centres unmarked) [Compound 1-e-65] | 0 | 0 | 2 | 4 | 4 | 5 |  |  |  |  |  |  |  |  |  |  |  |  |  |  | Effects Soybean (soybean [2]): 0 |
| CCC(Oc1cc(C(F)(F)F)on1)c1nc2cc(C#N)c(F)cc2o1 (centres unmarked) [I-e-40, 1-(5-cyano-6-fluorobenzoxazol-2-yl)-1-(5-trifluoromethylisoxazol-3-yloxy)propane] | 0 | 1 | 5 | 5 | 5 | 5 | 5 | 5 | 4 | 5 | 5 | 2 | 4 |  |  |  |  |  |  |  | Effects Soybean (soybean [2]): 2 |
| CCC(Oc1cc(C(F)(F)F)nn1C)c1nc2cc(Cl)ccc2o1 (centres unmarked) [Compound 1-e-2] | 0 | 0 | 2 | 3 | 3 | 5 |  | 3 | 2 | 3 | 4 | 1 |  | 1 |  |  |  |  |  |  | Effects Soybean (soybean [2]): 0 |
| CCC(=Cc1cccc(C(F)(F)F)c1)c1nc2ccc([N+](=O)[O-])cc2o1 [I-c-15] | 1 | 1 | 5 | 5 | 5 | 5 | 4 | 5 | 4 | 5 | 5 | 2 | 4 | 2 | 5 | 4 | 3 | 2 | 1 | 2 | Effects Velvetleaf (velvetleaf [20]): 3; Effects Blackgrass (blackgrass [21]): 3; Effects Blackgrass (blackgrass [22]): 5; Effects Sugar beat (sugar beat [23]): 4; Effects Solgum (solgum [24]): 2; Effects Sotton (cotton): 3; Effects Soybean (soybean [25]): 5; Effects Morning glory (morning glory [26]): 2 |
| CCCC(=Cc1cccc(C(F)(F)F)c1)c1nc2cc(C#N)ccc2o1 [I-c-83] | 1 | 2 | 5 | 5 | 5 | 5 | 4 | 5 | 5 | 5 | 5 | 2 | 4 | 3 | 5 | 4 | 2 | 5 | 1 | 5 | Effects Velvetleaf (velvetleaf [20]): 4; Effects Blackgrass (blackgrass [21]): 4; Effects Blackgrass (blackgrass [22]): 5; Effects Sugar beat (sugar beat [23]): 5; Effects Solgum (solgum [24]): 3; Effects Sotton (cotton): 5; Effects Soybean (soybean [25]): 4; Effects Morning glory (morning glory [26]): 5 |
| CCCC(=Cc1cccc(C(F)(F)F)c1)c1nc2cc([N+](=O)[O-])ccc2o1 [I-c-74] | 1 | 2 | 5 | 5 | 5 | 5 | 5 | 5 | 5 | 5 | 5 | 2 | 4 | 2 | 5 | 4 | 2 | 5 | 2 | 5 | Effects Velvetleaf (velvetleaf [20]): 4; Effects Blackgrass (blackgrass [21]): 2; Effects Blackgrass (blackgrass [22]): 4; Effects Sugar beat (sugar beat [23]): 4; Effects Solgum (solgum [24]): 2; Effects Sotton (cotton): 5; Effects Soybean (soybean [25]): 5; Effects Morning glory (morning glory [26]): 5 |
| CC(=Cc1cccc(C(F)(F)F)c1)c1nc2cc(C#N)c(Cl)cc2o1 [I-c-141] | 0 | 0 | 5 | 5 | 5 | 5 | 4 | 5 | 5 | 5 | 5 | 1 | 3 | 2 | 5 | 3 | 1 | 5 | 0 | 5 | Effects Velvetleaf (velvetleaf [20]): 4; Effects Blackgrass (blackgrass [21]): 1; Effects Blackgrass (blackgrass [22]): 4; Effects Sugar beat (sugar beat [23]): 5; Effects Solgum (solgum [24]): 1; Effects Sotton (cotton): 5; Effects Soybean (soybean [25]): 3; Effects Morning glory (morning glory [26]): 5 |

Source: patent US7402548B2, “Benzoxazole compounds, process for producing the same and herbicides” (Kyoyu Agri Co., Ltd., priority 2000, dated 2008)
